The source of these data is US6268391A, “Benzylidene-1,3-dihydro-indol-2-one derivatives a receptor tyrosine kinase inhibitors, particularly of Raf kinases” (Glaxo Wellcome Inc., priority 1997, dated 2001).

One experiment concerns the target T1, Human cRaf1 (Homo sapiens, UniProt P04049).
T1 construct: poly-histidine (C); made in house
Description: Raf kinase assay (cRaf1 assay / Raf/MEK cascade assay). The settings on record: Table 3; read-out: Raf Kinase activity. The format is biochemical.

In another experiment the test system is HT-29 xenograft. Description: Anti-tumor study in mice, HT-29 xenograft. Particulars: 25 mg/kg. The format is in vivo. The procedure:
Mice are acquired from Taconic Farms and are maintained in Microisolator cages at 72±2° F. with a 12 hour light/dark cycle. Animals are housed at 4 mice per cage (28×17×12 cm ) and are given food and water ad libitum. Animals are numbered through the use of an ear punch or tail tattoo. All animal handling is done in a laminar flow hood.
Solid tumors are measured by caliper measurement through the skin. Caliper measurements are typically made twice weekly. Tumor weight is calculated using the equation (length×width^2 /2)=mg tumor weight.
Compounds are prepared in a vehicle consisting of DMSO, Cremophore and PBS.
Drug therapy begins when the average tumor size is approximately 40-50 mg, which usually is day 7 after implant. The dose schedule consists of one dose/day for 5 consecutive days. Drugs are administered at 3 or 4 dose-levels based upon the previously-determined maximally tolerated dose. A vehicle control group is also included. Drugs may be administered by either i.v., i.p., s.c., or oral (p.o.) transdermal routes or other alternative routes. Drugs may be administered via tail vein infusion. The injection volume administered for each mouse is usually 0.01-0.02 mL/g of body weight. In the case of i.v. injections and tail vein infusion animals are restrained in a Broome restrainer during handling. Animal are fasted overnight prior to p.o. dosing. […]

T1 sequence (P04049 whole entry): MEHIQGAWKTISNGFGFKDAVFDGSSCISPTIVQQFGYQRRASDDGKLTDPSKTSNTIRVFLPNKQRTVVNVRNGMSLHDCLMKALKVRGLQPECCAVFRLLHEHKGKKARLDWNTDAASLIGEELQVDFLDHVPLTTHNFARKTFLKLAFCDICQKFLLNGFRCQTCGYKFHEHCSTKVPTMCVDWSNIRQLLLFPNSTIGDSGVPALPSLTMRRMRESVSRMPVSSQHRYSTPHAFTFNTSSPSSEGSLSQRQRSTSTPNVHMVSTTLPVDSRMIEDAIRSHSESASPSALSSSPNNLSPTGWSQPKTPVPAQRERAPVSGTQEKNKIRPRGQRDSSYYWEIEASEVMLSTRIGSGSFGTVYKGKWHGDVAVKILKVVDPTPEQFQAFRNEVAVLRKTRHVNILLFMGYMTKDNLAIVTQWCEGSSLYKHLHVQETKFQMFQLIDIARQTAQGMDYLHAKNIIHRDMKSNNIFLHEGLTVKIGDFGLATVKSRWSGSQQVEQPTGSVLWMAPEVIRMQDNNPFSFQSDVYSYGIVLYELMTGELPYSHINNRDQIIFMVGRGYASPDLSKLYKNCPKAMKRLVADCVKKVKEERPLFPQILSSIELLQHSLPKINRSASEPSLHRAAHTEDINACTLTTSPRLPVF

As to `O=C1Nc2ccc(C(=O)CCl)cc2C1=Cc1cc(Br)c(O)c(Br)c1` [Example 84, 5-(2-Chloro-acetyl)-3-(3,5-dibromo-4-hydroxy-benzylidene)-1,3-dihydro-indol-2-one], at Human cRaf1, the IC50 is less than 1 µM. In addition, the “Tumor Response % Inhibition @ mg/kg” value in the experiment with HT-29 xenograft is 50%.
